Data published in patent US8921360B2, “Heterobicycle-substituted azolyl benzene fungicides” (priority 2009, dated 2014).

Key:
Assay type in all cases: in vivo
[1] = system: Erysiphe graminis f. sp. tritici; assay: Test A: wheat powdery mildew, preventive spray on wheat seedlings; details: wheat seedlings sprayed to run-off, inoculated next day, rated after 8 days, 100 = 100% disease control, 0 = no control; for Percentage Disease Control Test A: 200 ppm
Excerpt: General protocol for preparing test suspensions for Tests A-G: the test compounds were first dissolved in acetone in an amount equal to 11% of the final volume and then suspended at the desired concentration (in ppm) in acetone and purified water (50/50 mix by volume) containing 250 ppm of the surfactant Trem® 014 (polyhydric alcohol esters). The resulting test suspensions were then used in Tests A-G. Spraying a 200 ppm test suspension to the point of run-off on the test plants was the equivalent of a rate of 800 g/ha. The test suspension was sprayed to the point of run-off on wheat seedlings. The following day the seedlings were inoculated with a spore dust of Erysiphe graminis f. sp. tritici, (the causal agent of wheat powdery mildew) and incubated in a growth chamber at 20° C. for 8 days, after which time disease ratings were visually made. Results for Tests A-G are given in Table A. In the Table, a rating of 100 indicates 100% disease control and a rating of 0 indicates no disease control (relative to the controls). A dash (-) indicates no test results. All results are for 200 ppm except where followed by an “*”, which indicates 40 ppm.

[2] = system: Puccinia recondita f sp. tritici; assay: Test B: wheat leaf rust, preventive spray on wheat seedlings; details: wheat seedlings sprayed to run-off, inoculated next day, rated after 24 h + 7 days; for Percentage Disease Control Test B: 200 ppm
Excerpt: General protocol for preparing test suspensions for Tests A-G: the test compounds were first dissolved in acetone in an amount equal to 11% of the final volume and then suspended at the desired concentration (in ppm) in acetone and purified water (50/50 mix by volume) containing 250 ppm of the surfactant Trem® 014 (polyhydric alcohol esters). The resulting test suspensions were then used in Tests A-G. Spraying a 200 ppm test suspension to the point of run-off on the test plants was the equivalent of a rate of 800 g/ha. The test suspension was sprayed to the point of run-off on wheat seedlings. The following day the seedlings were inoculated with a spore suspension of Puccinia recondita f sp. tritici (the causal agent of wheat leaf rust) and incubated in a saturated atmosphere at 20° C. for 24 h, and then moved to a growth chamber at 20° C. for 7 days, after which time disease ratings were visually made. Results for Tests A-G are given in Table A. In the Table, a rating of 100 indicates 100% disease control and a rating of 0 indicates no disease control (relative to the controls). A dash (-) indicates no test results. All results are for 200 ppm except where followed by an “*”, which indicates 40 ppm.

Septoria nodorum = assay: Test D: wheat glume blotch, preventive spray on wheat seedlings; details: wheat seedlings sprayed to run-off, inoculated next day, rated after 48 h + 7 days; for Percentage Disease Control Test D: 200 ppm
Excerpt: General protocol for preparing test suspensions for Tests A-G: the test compounds were first dissolved in acetone in an amount equal to 11% of the final volume and then suspended at the desired concentration (in ppm) in acetone and purified water (50/50 mix by volume) containing 250 ppm of the surfactant Trem® 014 (polyhydric alcohol esters). The resulting test suspensions were then used in Tests A-G. Spraying a 200 ppm test suspension to the point of run-off on the test plants was the equivalent of a rate of 800 g/ha. The test suspension was sprayed to the point of run-off on wheat seedlings. The following day the seedlings were inoculated with a spore suspension of Septoria nodorum (the causal agent of wheat glume blotch) and incubated in a saturated atmosphere at 20° C. for 48 h, and then moved to a growth chamber at 20° C. for 7 days, after which time disease ratings were visually made. Results for Tests A-G are given in Table A. In the Table, a rating of 100 indicates 100% disease control and a rating of 0 indicates no disease control (relative to the controls). A dash (-) indicates no test results. All results are for 200 ppm except where followed by an “*”, which indicates 40 ppm.

Septoria tritici = assay: Test E: wheat leaf blotch, preventive spray on wheat seedlings; details: 200 ppm, wheat seedlings sprayed to run-off, inoculated next day, rated after 48 h + 19 days
Excerpt: General protocol for preparing test suspensions for Tests A-G: the test compounds were first dissolved in acetone in an amount equal to 11% of the final volume and then suspended at the desired concentration (in ppm) in acetone and purified water (50/50 mix by volume) containing 250 ppm of the surfactant Trem® 014 (polyhydric alcohol esters). The resulting test suspensions were then used in Tests A-G. Spraying a 200 ppm test suspension to the point of run-off on the test plants was the equivalent of a rate of 800 g/ha. The test suspension was sprayed to the point of run-off on wheat seedlings. The following day the seedlings were inoculated with a spore suspension of Septoria tritici (the causal agent of wheat leaf blotch) and incubated in a saturated atmosphere at 24° C. for 48 h, and then moved to a growth chamber at 20° C. for 19 days, after which time disease ratings were visually made. Results for Tests A-G are given in Table A. In the Table, a rating of 100 indicates 100% disease control and a rating of 0 indicates no disease control (relative to the controls). A dash (-) indicates no test results. All results are for 200 ppm except where followed by an “*”, which indicates 40 ppm.

Botrytis cinerea = assay: Test F: tomato botrytis, preventive spray on tomato seedlings; details: tomato seedlings sprayed to run-off, inoculated next day, rated after 48 h + 3 days; for Percentage Disease Control Test F: 200 ppm
Excerpt: General protocol for preparing test suspensions for Tests A-G: the test compounds were first dissolved in acetone in an amount equal to 11% of the final volume and then suspended at the desired concentration (in ppm) in acetone and purified water (50/50 mix by volume) containing 250 ppm of the surfactant Trem® 014 (polyhydric alcohol esters). The resulting test suspensions were then used in Tests A-G. Spraying a 200 ppm test suspension to the point of run-off on the test plants was the equivalent of a rate of 800 g/ha. The test suspension was sprayed to the point of run-off on tomato seedlings. The following day the seedlings were inoculated with a spore suspension of Botrytis cinerea (the causal agent of tomato botrytis) and incubated in saturated atmosphere at 20° C. for 48 h, and then moved to a growth chamber at 27° C. for 3 additional days, after which time disease ratings were visually made. Results for Tests A-G are given in Table A. In the Table, a rating of 100 indicates 100% disease control and a rating of 0 indicates no disease control (relative to the controls). A dash (-) indicates no test results. All results are for 200 ppm except where followed by an “*”, which indicates 40 ppm.

Alternaria solani = assay: Test G: tomato early blight, preventive spray on tomato seedlings; details: tomato seedlings sprayed to run-off, inoculated next day, rated after 48 h + 5 days; for Percentage Disease Control Test G: 200 ppm
Excerpt: General protocol for preparing test suspensions for Tests A-G: the test compounds were first dissolved in acetone in an amount equal to 11% of the final volume and then suspended at the desired concentration (in ppm) in acetone and purified water (50/50 mix by volume) containing 250 ppm of the surfactant Trem® 014 (polyhydric alcohol esters). The resulting test suspensions were then used in Tests A-G. Spraying a 200 ppm test suspension to the point of run-off on the test plants was the equivalent of a rate of 800 g/ha. The test suspension was sprayed to the point of run-off on tomato seedlings. The following day the seedlings were inoculated with a spore suspension of Alternaria solani (the causal agent of tomato early blight) and incubated in a saturated atmosphere at 27° C. for 48 h, and then moved to a growth chamber at 24° C. for 5 days, after which time disease ratings were visually made. Results for Tests A-G are given in Table A. In the Table, a rating of 100 indicates 100% disease control and a rating of 0 indicates no disease control (relative to the controls). A dash (-) indicates no test results. All results are for 200 ppm except where followed by an “*”, which indicates 40 ppm.

[3] = system: Puccinia recondita f. sp. tritici; assay: Test C: wheat leaf rust, spray the day after inoculation of wheat seedlings; details: 200 ppm; wheat seedlings inoculated, sprayed the following day, rated after 5 days;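 also: Curative spray on infected wheat seedlings with visual rating 5 days later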
Excerpt: General protocol for preparing test suspensions for Tests A-G: the test compounds were first dissolved in acetone in an amount equal to 11% of the final volume and then suspended at the desired concentration (in ppm) in acetone and purified water (50/50 mix by volume) containing 250 ppm of the surfactant Trem® 014 (polyhydric alcohol esters). The resulting test suspensions were then used in Tests A-G. Spraying a 200 ppm test suspension to the point of run-off on the test plants was the equivalent of a rate of 800 g/ha. Wheat seedlings were inoculated with a spore suspension of Puccinia recondita f. sp. tritici (the causal agent of wheat leaf rust) and incubated in a saturated atmosphere at 20° C. for 24 h. The following day, the test suspension was sprayed to the point of run-off on the wheat seedlings and then moved to a growth chamber at 20° C. for 5 days, after which time disease ratings were visually made. Results for Tests A-G are given in Table A. In the Table, a rating of 100 indicates 100% disease control and a rating of 0 indicates no disease control (relative to the controls). A dash (-) indicates no test results. All results are for 200 ppm except where followed by an “*”, which indicates 40 ppm.

SMILES | pest or weed control at 200 ppm ([1]; Blumeria graminis, 192 h, read-out: Percentage Disease Control Test A) [%] | pest or weed control at 200 ppm ([2]; Puccinia recondita, 192 h, read-out: Percentage Disease Control Test B) [%] | pest or weed control at 200 ppm (Septoria nodorum; Parastagonospora nodorum, 216 h, read-out: Percentage Disease Control Test D) [%] | pest or weed control at 200 ppm (Septoria tritici; Zymoseptoria tritici, 456 h, read-out: Percentage Disease Control Test E) [%] | pest or weed control at 200 ppm (Botrytis cinerea; Botrytis cinerea, topical, 120 h, read-out: Percentage Disease Control Test F) [%] | pest or weed control at 200 ppm (Alternaria solani; Alternaria solani, topical, 168 h, read-out: Percentage Disease Control Test G) [%] | Percentage Disease Control Test A [1] [%] | Percentage Disease Control Test B [2] [%] | Percentage Disease Control Test C [3] [%] | Percentage Disease Control Test D (Septoria nodorum) [%] | Percentage Disease Control Test E (Septoria tritici) [%] | Percentage Disease Control Test F (Botrytis cinerea) [%] | Percentage Disease Control Test G (Alternaria solani) [%]
COC(=O)NCc1cc(-c2ccn(-c3ccc4c(c3)CCCO4)n2)ccc1Cl [Compound 1, methyl N-[[2-chloro-5-[1-(3,4-dihydro-2H-1-benzopyran-6-yl)-1H-pyrazol-3-yl]phenyl]methyl]carbamate] | 100 | 100 | 100 | 92 | 0 | 100 | – | – | – | – | – | – | –
COC(=O)NCc1cc(-n2ccc(-c3ccc4c(c3)OCCO4)n2)ccc1F [Compound 10] | – | – | – | – | – | – | 100 | 100 | 100 | 100 | 98 | 94 | 84
COC(=O)NCc1cc(-c2ccn(-c3ccc4c(c3)N(C)C(=O)CO4)n2)ccc1F [Compound 13] | – | – | – | – | – | – | 90 | 100 | 28 | 97 | 24 | 7 | 54
COC(=O)NCc1cc(-n2ccc(-c3ccc4c(c3)NC(=O)CO4)n2)ccc1F [Compound 14] | – | – | – | – | – | – | 0 | 54 | 0 | 0 | 44 | 0 | 0
COC(=O)NCc1cc(-n2ccc(-c3ccc4c(c3)NCCO4)n2)ccc1F [Compound 15] | – | – | – | – | – | – | 0 | 100 | 38 | 100 | 99 | 80 | 12
COC(=O)NCc1cc(-c2ccn(-c3ccc4c(c3)CCCO4)n2)ccc1Br [Compound 16] | – | – | – | – | – | – | 100 | 100 | 100 | 100 | 100 | 99 | 85
COC(=O)NCc1cc(-c2ccn(-c3ccc4c(c3)OCCO4)n2)ccc1Br [Compound 17] | – | – | – | – | – | – | 100 | 100 | 100 | 100 | 99 | 87 | 93
COC(=O)NCc1cc(-n2ccc(-c3ccc4c(c3)C(=O)CCO4)n2)ccc1F [Compound 18] | – | – | – | – | – | – | 90 | 100 | 74 | 99 | 97 | 79 | 50
COC(=O)NCc1cc(-c2ccn(-c3ccc4c(c3)OCCO4)n2)ccc1C [Compound 19] | – | – | – | – | – | – | 100 | 100 | 100 | 100 | 100 | 99 | 73
